Laboratory results published in PubChem BioAssay AID1918948 (Molecular Pharmacology Branch, DTP, NCI, 2023).

Test system: K-562 leukemia growth, % test/control
Assay: Anticancer human tumor K-562 cell line growth inhibition;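 also: spheroids exposed to compounds for 7 days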;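 as to viability, T/C: 100% = DMSO vehicle wells and lower values mean fewer viable cells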
Conditions: spheroids with HUVEC and MSC; for IC50: curve of first compound; for viability, T/C: stronger effect = lower value
Description: Multicellular complex tumor spheroid response to LSD1 Inhibitor Iadademstat in combination with a variety of drugs and investigational agents in selected tumor cell lines
The current study was undertaken to assess response to LSD1 inhibitors in combination with standard-of-care drugs and investigational agents in solid tumor complex spheroid models as well as in the K-562 leukemia. Complex spheroids include a stromal component modeled by human endothelial cells (HUVEC) and fibroblasts modeled by human mesenchymal stem cells (MSCs). The concentration ranges selected for each drug and investigational agent were based upon clinically achievable concentrations if the clinical Cmax of the agent was known.
Compounds. The drugs and investigational agents used in this study are listed on Table 1. All of the agents used, including staurosporine (NSC755774) and gemcitabine (NSC613327), were obtained from the Developmental Therapeutics Program, NCI. FDA-approved anticancer drugs are available from the NCI at http://dtp.nci.nih.gov/branches/dscb/oncology_drugset_explanation.html. Drugs and investigational agents were >95% pure by proton nuclear magnetic resonance (NMR) and liquid chromatography/mass spectrometry (LC/MS). Stock solutions were prepared at 400x in DMSO, stored at -70 degrees C, and diluted in fresh medium prior to their use. The final concentration of DMSO in cell culture wells never exceeded 0.25% (v/v). The FDA-approved anticancer drug set is available from the Developmental Therapeutics Program at https://dtp.cancer.gov/organization/dscb/obtaining/available_plates.htm. All drugs and investigational agents were tested over a range starting from a high concentration at or near the clinical Cmax and decreasing in half-log increments. If the clinical Cmax for an agent had not been determined, the highest concentration tested was 10 microM.
Cell Lines. The patient-derived cancer cell (PDC) lines: 292921-168-R-J2-PDC, K24384-001-R-PDC, and 521955-158-R2-J5-PDC pancreatic carcinomas, 556581-035-R-J1 ovarian carcinoma, 324938-238-R-J1-PDC, 855422-203-R-J1-PDC and 883617-216-R-J1-PDC urothelial bladder carcinomas, 743489-274-T-PDC renal cell carcinoma, 138582-R-J1 Merkel cell tumor, K60290-347-R-J1 and K57222-313-R-J1-PDC glioblastomas, 653999-131-R-J2-PDC, LG0703-F948-PDC, and 349418-098-R-PDC non-small cell lung carcinomas, 885512-296-R-J2-PDC, 171881-019-R-J1-PDC breast carcinomas and 186277-243-T-J2-PDC and 233499-124-R-J2-PDC colon carcinomas were obtained from the NCI Patient-Derived Models Repository (PDMR, https://pdmr.cancer.gov). The established cell lines NCI/ADR-RES (RRID:CVCL_14520 and OVCAR-5 (RRID:CVCL_1628) ovarian carcinomas, 786-O (RRID:CVCL_1051) and A498 (RRID:CVCL_A498) renal cell carcinoma, NCI-H211 (ATCC, cat. CRL-5824; RRID:CVCL_1529), NCI-H196 (ATCC, cat. CRL-5823, RRID:CVCL_1509), SW 1271 (ATCC, cat. CRL-2177, RRID:CVCL_1716) and NCI-H1876 (ATCC, cat. CRL-5902, RRID:CVCL_1503) small cell lung carcinomas, MDA-MB-231 (RRID:CVCL_0062) and MDA-MB-468 (RRID:CVCL_0419)breast carcinomas (10-12). Pooled donor human umbilical vein endothelial cells (HUVEC, Lonza, cat. CC-2519) and human mesenchymal stem cells (hMSC, Lonza, cat. PT-2501) were purchased from Lonza (Walkersville, MD).
Cell Culture. All cells were maintained in an incubator at 37 degrees C and 5% CO2 with 95% humidity. The PDC lines were cultured according to standard operating procedures established by the NCI PDMR (https://pdmr.cancer.gov). Briefly all PDCs were thawed and cultured in Matrigel-coated flasks prepared with a working solution of 1X Ham's F-12 nutrient mix, without supplementation (Invitrogen, Waltham, MA, cat. 11765054), 100 U/mL penicillin-streptomycin (Invitrogen, cat. 15140122), and 2.5% Matrigel (Corning Inc., Corning, NY, cat. 354248) for the first three passages. […]

SMILES: Nc1ncn(C2CC(O)C(CO)O2)c(=O)n1 (stereo not given) + NC1CC1c1ccc(-c2cccc(O)c2)cc1
- IC50 (second compound 0.1 µM): > 1000 nM
- IC50 (second compound 0.316 µM): > 1000 nM
- IC50 (second compound 1 µM): 988 nM
- IC50 (second compound 3.16 µM): 772 nM
- IC50 (second compound 10 µM): 166 nM
- viability, T/C (second compound 0.1 µM, first compound 0.00316 µM): 106%
- viability, T/C (second compound 0.1 µM, first compound 0.01 µM): 104%
- viability, T/C (second compound 0.1 µM, first compound 0.0316 µM): 99.4%
- viability, T/C (second compound 0.1 µM, first compound 0.1 µM): 89.7%
- viability, T/C (second compound 0.1 µM, first compound 0.316 µM): 72.8%
- viability, T/C (second compound 0.1 µM, first compound 1 µM): 65.1%
- viability, T/C (second compound 0.316 µM, first compound 0.00316 µM): 101%
- viability, T/C (second compound 0.316 µM, first compound 0.01 µM): 104%
- viability, T/C (second compound 0.316 µM, first compound 0.0316 µM): 97.5%
- viability, T/C (second compound 0.316 µM, first compound 0.1 µM): 86.1%
- viability, T/C (second compound 0.316 µM, first compound 0.316 µM): 67.2%
- viability, T/C (second compound 0.316 µM, first compound 1 µM): 55.6%
- viability, T/C (second compound 1 µM, first compound 0.00316 µM): 101%
- viability, T/C (second compound 1 µM, first compound 0.01 µM): 102%
- viability, T/C (second compound 1 µM, first compound 0.0316 µM): 95.9%
- viability, T/C (second compound 1 µM, first compound 0.1 µM): 85%
- viability, T/C (second compound 1 µM, first compound 0.316 µM): 62.5%
- viability, T/C (second compound 1 µM, first compound 1 µM): 50%
- viability, T/C (second compound 3.16 µM, first compound 0.00316 µM): 102%
- viability, T/C (second compound 3.16 µM, first compound 0.01 µM): 97.9%
- viability, T/C (second compound 3.16 µM, first compound 0.0316 µM): 95.9%
- viability, T/C (second compound 3.16 µM, first compound 0.1 µM): 80.4%
- viability, T/C (second compound 3.16 µM, first compound 0.316 µM): 58.4%
- viability, T/C (second compound 3.16 µM, first compound 1 µM): 47.6%
- viability, T/C (second compound 10 µM, first compound 0.00316 µM): 96.9%
- viability, T/C (second compound 10 µM, first compound 0.01 µM): 89.1%
- viability, T/C (second compound 10 µM, first compound 0.0316 µM): 77.4%
- viability, T/C (second compound 10 µM, first compound 0.1 µM): 58.7%
- viability, T/C (second compound 10 µM, first compound 0.316 µM): 38.8%
- viability, T/C (second compound 10 µM, first compound 1 µM): 31.9%
